Measured values as given in article PMC6690489 (Bioorganic & medicinal chemistry letters, 2018).

Assays:
[1] = biological target: T1, human M4 (Homo sapiens, UniProt P08173); test: calcium mobilization human M4/Gqi5 assay with EC20 acetylcholine; type: cell-based
T1 sequence (P08173 1-479): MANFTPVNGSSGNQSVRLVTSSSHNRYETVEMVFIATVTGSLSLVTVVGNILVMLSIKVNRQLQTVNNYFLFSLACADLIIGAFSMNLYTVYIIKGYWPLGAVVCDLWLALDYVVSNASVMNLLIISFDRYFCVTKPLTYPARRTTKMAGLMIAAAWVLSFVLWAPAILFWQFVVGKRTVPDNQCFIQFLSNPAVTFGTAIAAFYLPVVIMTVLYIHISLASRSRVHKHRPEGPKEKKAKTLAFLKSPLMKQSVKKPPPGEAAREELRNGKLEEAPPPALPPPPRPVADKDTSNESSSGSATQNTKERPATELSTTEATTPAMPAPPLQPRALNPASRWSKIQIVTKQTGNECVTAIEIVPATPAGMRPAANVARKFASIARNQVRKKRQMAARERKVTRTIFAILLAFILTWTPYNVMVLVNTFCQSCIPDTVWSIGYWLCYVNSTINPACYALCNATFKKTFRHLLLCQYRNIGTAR

[2] = test system: CYP450; test: CYP450 inhibition profile; type: in vitro ADME
[3] = predicted hepatic clearance; type: in vitro ADME; details: rat

SMILES	IC50 [2]	predicted hepatic clearance CLhep [3]	also measured
COc1ccc(CNC(=O)c2cc3c(C)c(C)nnc3s2)cc1F [18a]			loss of potency relative to parent 4 ([1]; des-amino analog vs NH2-bearing 4): ~ 18 fold
COc1ccc(CNc2n[nH]c3c2sc2nc(C)cc(C)c23)cc1 [22a]	< 5000 nM	66 mL/min/kg	
Cc1nc2sc3c(NCC4CC4)nn(C)c3c2c(C)c1Cl [27d]		> 67 mL/min/kg	
Cc1nc2sc3c(NCc4ccco4)nn(C)c3c2c(C)c1Cl [27e]		> 67 mL/min/kg	
COc1ccc(CNc2nn(C)c3c2sc2nnc(C)c(C)c23)cc1 [30a]		67.8 mL/min/kg	EC50 [1]: 44 nM
Cc1nnc2sc3c(NCc4ccc(S(C)(=O)=O)c(F)c4)nn(C)c3c2c1C [30b]	> 30000 nM		
